Source: patent US10028992B2, “Methods of treating muscular dystrophy” (BOARD OF REGENTS OF THE NEVADA SYSTEM OF HIGHER EDUCATION …, priority 2012, dated 2018)
Where two headings read alike, the source gives them in different places.

System: α7 integrin promoter
Test: muscle cell-based assay: α7βgal+/− myoblasts/myotubes, LacZ reporter, β-galactosidase cleavage of FDG
Design: species or system mouse; Results in α7+/− β-galactosidase assay: scale not given here
Conditions: for EC50 / AC50 / Emax: Mus musculus; for Fit Curve Class: key not given; for AC50: log of AC50, given with negative sign, unit of AC50 not given, read-out: Fit Log AC50 (converted); for Emax: read-out: Max Response [%]; for Results in a α7+/− β-galactosidase assay, Myotubes, 0.5 uM: compound at 0.5 uM; for Results in a α7+/− β-galactosidase assay, Myotubes, 1 uM: compound at 1 uM; for Results in a α7+/− β-galactosidase assay, Myotubes, 5 uM: compound at 5 uM; for Results in a α7+/− β-galactosidase assay, Myotubes, 10 uM: compound at 10 uM; for Results in a α7+/− β-galactosidase assay, Myotubes, 20 uM: compound at 20 uM; for Results in a α7+/− β-galactosidase assay, Myotubes, 40 uM: compound at 40 uM
Method in brief: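 Fluorescein generated from FDG by β-galactosidase reports α7 integrin promoter activity in differentiated myoblasts from α7+/− LacZ knock-in pups. Screening hits then went to dose-response, western blotting and a myostatin counterscreen.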

[1] = Table 12, fitted activity at zero concentration
[2] = Table 12 Compound data, concentration-response curve fit

`Cc1ccccc1C(=O)Nc1nnc(SC(C)C)s1` [Compound 196] was tested, and the EC50 (given as log AC50 (negative values), read-out: Fit LogAC50 (converted)) was 10 µM, the Score (Table 12 compound data) was 42 and the “Fit Curve Class” value (curve class number) was 2.2. For the same compound, the “Fit HillSlope” value (curve fit) was 2.8473 and the “Fit Zero Activity [%]” value (curve fit, activity at zero concentration) was −0.5091%.
With `Cc1[nH]c(/C=C2\C(=O)Nc3ccccc32)c(C)c1CCC(=O)O` [drawing 509] the “Results in α7+/− β-galactosidase assay” value (Myotubes, 0.5 uM) was 0.04928, the “Results in α7+/− β-galactosidase assay” value (Myotubes, 1 uM) was 0.07615 and the “Results in α7+/− β-galactosidase assay” value (Myotubes, 5 uM) was −0.501. For the same compound, the “Results in α7+/− β-galactosidase assay” value (Myotubes, 10 uM) was −0.6162, the “Results in α7+/− β-galactosidase assay” value (Myotubes, 20 uM) was −0.2542 and the “Results in α7+/− β-galactosidase assay” value (Myotubes, 40 uM) was −0.3688.
With `CC(=O)N(O)CCCCCNC(=O)CCC(=O)N(O)CCCCCNC(=O)CCC(=O)N(O)CCCCCN` [Deferoxamine, deferoxamine, reference compound] the EC50 (Myotube, α7βgal+/− myotubes, dose-response, read-out: EC50) was 10 µM, the EC50 (enhancement of α7 integrin expression in muscle cells, read-out: EC50) was 10 µM and the “Optimal Concentration” value (enhancement of α7 integrin expression in muscle cells) was 20 μm.
In the case of `Cc1[nH]c(/C=C2\C(=O)Nc3ccccc32)c(C)c1CCC(=O)O` [drawing 717], the “Result in α7+/− β-galactosidase assay” value (Myoblasts, 0.5 uM) is reported as 0.01086, the “Result in α7+/− β-galactosidase assay” value (Myoblasts, 1 uM) is reported as 0.05675 and the “Result in α7+/− β-galactosidase assay” value (Myoblasts, 5 uM) is reported as −0.0938. The “Result in α7+/− β-galactosidase assay” value (Myoblasts, 10 uM) was −0.1338, the “Result in α7+/− β-galactosidase assay” value (Myoblasts, 20 uM) was −0.04064 and the “Result in α7+/− β-galactosidase assay” value (Myoblasts, 40 uM) was −0.0832.
With `Cc1ccsc1CN(C)CC(=O)Cc1ccc([N+](=O)[O-])cc1Cl` [drawing 681] the “Results in α7+/− β-galactosidase assay” value (Myoblasts, 0.5 uM) was 0.233, the “Results in α7+/− β-galactosidase assay” value (Myoblasts, 1 uM) was 0.3513 and the “Results in α7+/− β-galactosidase assay” value (Myoblasts, 5 uM) was −0.03377. The “Results in α7+/− β-galactosidase assay” value (Myoblasts, 10 uM) was −0.09863, the “Results in α7+/− β-galactosidase assay” value (Myoblasts, 20 uM) was −0.01304 and the “Results in α7+/− β-galactosidase assay” value (Myoblasts, 40 uM) was −0.0403.
With `COc1ccc(OC)c(S(=O)(=O)Nc2c(NC3CCCCC3)c3ccccc3oc2=O)c1` [drawing 656] the “Results in α7+/− β-galactosidase assay” value (Myoblasts, 0.5 uM) was −0.2127, the “Results in α7+/− β-galactosidase assay” value (Myoblasts, 1 uM) was −0.1212 and the “Results in α7+/− β-galactosidase assay” value (Myoblasts, 5 uM) was 0.2955. For the same compound, the “Results in α7+/− β-galactosidase assay” value (Myoblasts, 10 uM) was −0.031, the “Results in α7+/− β-galactosidase assay” value (Myoblasts, 20 uM) was −0.2083 and the “Results in α7+/− β-galactosidase assay” value (Myoblasts, 40 uM) was −0.2716.
For `Cc1ccc(-c2onc3ccc(C(=O)/C=C/N(C)C)cc23)cc1` [Compound 39], the AC50 (Table 12) was 3.55 µM, the Emax was 69.1% and the “Fit HillSlope” value (Table 12, curve fit) was 1.7529. The “Fit Zero Activity [%]” value [1] was −9.0026%, the “Fit Curve Class” value (Table 12) was 1.2 and the Score [2] was 63.
`CC(C)NC(=O)CN1CCN(C(=O)CCl)CC1.Cl` [Compound 62] was tested, and the AC50 (Table 12) was 7.08 µM, the “Fit HillSlope” value (Table 12, curve fit) was 1.9673 and the “Fit Zero Activity [%]” value [1] was −23.864%. For the same compound, the “Fit Curve Class” value (Table 12) was 2.1 and the Score [2] was 45.
In the case of `O=C1Nc2ccccc2/C1=C\c1ccnc2ccccc12` [drawing 318], the “Results in a α7+/− β-galactosidase assay, Myotubes, 0.5 uM” value (“Results … 0.5 uM” below) (Myotubes) is reported as 0.1725, the “Results in a α7+/− β-galactosidase assay, Myotubes, 1 uM” value (“Results … 1 uM” below) (Myotubes) is reported as 0.09552 and the “Results in a α7+/− β-galactosidase assay, Myotubes, 5 uM” value (from here on “Results … Myotubes, 5 uM”) (Myotubes) is reported as 0.4005. For the same compound, the “Results in a α7+/− β-galactosidase assay, Myotubes, 10 uM” value (“Results … 10 uM” for short) (Myotubes) was 0.4118, the “Results in a α7+/− β-galactosidase assay, Myotubes, 20 uM” value (“Results … 20 uM” below) (Myotubes) was −0.4266 and the “Results in a α7+/− β-galactosidase assay, Myotubes, 40 uM” value (shortened to “Results … 40 uM”) (Myotubes) was −0.342.
For `N#CC1=C2SCN(c3ccccc3)CN2C(=O)CC1c1cccs1` (centres unmarked) [drawing 360], the “Results … 0.5 uM” value (Myotubes) was 0.09082, the “Results … 1 uM” value (Myotubes) was 0.1158 and the “Results … Myotubes, 5 uM” value (Myotubes) was −0.0988. The “Results … 10 uM” value (Myotubes) was −0.03259, the “Results … 20 uM” value (Myotubes) was −0.2578 and the “Results … 40 uM” value (Myotubes) was −0.3783.
With `COCc1c(C(=O)OCc2nc(=O)c3sccc3[nH]2)oc2ccccc12` [Compound 6] the AC50 (Table 12) was 1.12 µM, the Emax was 68.1% and the “Fit HillSlope” value (Table 12, curve fit) was 1.3437. The “Fit Zero Activity [%]” value [1] was −58.5311%, the “Fit Curve Class” value (Table 12) was 1.1 and the Score [2] was 85.
For `CN(C)/C=N/c1nccc(-c2cccs2)n1` [Compound 121], the AC50 (Table 12) was 8.91 µM, the “Fit HillSlope” value (Table 12, curve fit) was 1.8851 and the “Fit Zero Activity [%]” value [1] was 5.7133%. For the same compound, the “Fit Curve Class” value (Table 12) was 2.1 and the Score [2] was 43.
In the case of `CCCS(=O)(=O)N1CCCC(C(=O)c2cccc(Cl)c2)C1` (centres unmarked) [Compound 84], the AC50 (Table 12) is reported as 6.31 µM, the “Fit HillSlope” value (Table 12, curve fit) is reported as 1.2221 and the “Fit Zero Activity [%]” value [1] is reported as −7.9639%. The “Fit Curve Class” value (Table 12) was 2.1 and the Score [2] was 44.
For `Cc1noc(C)c1COc1ccc(C(=O)NCCc2ccccn2)cc1` [drawing 386], the “Results … 0.5 uM” value (Myotubes) was 0.08027, the “Results … 1 uM” value (Myotubes) was 0.1153 and the “Results … Myotubes, 5 uM” value (Myotubes) was −0.04323. For the same compound, the “Results … 10 uM” value (Myotubes) was 0.2279, the “Results … 20 uM” value (Myotubes) was −0.2443 and the “Results … 40 uM” value (Myotubes) was −0.1582.
`N=C(NOC(=O)c1cccc(C(F)(F)F)c1)c1cnccn1` [drawing 577] was tested, and the “Results in α7+/− β-galactosidase assay” value (Myoblasts, 0.5 uM) was −0.05513, the “Results in α7+/− β-galactosidase assay” value (Myoblasts, 1 uM) was 0.02871 and the “Results in α7+/− β-galactosidase assay” value (Myoblasts, 5 uM) was −0.00636. The “Results in α7+/− β-galactosidase assay” value (Myoblasts, 10 uM) was −0.02595, the “Results in α7+/− β-galactosidase assay” value (Myoblasts, 20 uM) was 0.07472 and the “Results in α7+/− β-galactosidase assay” value (Myoblasts, 40 uM) was 0.1346.
